Where “and” joins values, the source holds several entries; their conditions need not be identical. Equal entries are not always repeated.
Columns and labels:
[1] = target: Glycogen synthase kinase-3 alpha (Homo sapiens, UniProt P49840); test: TR-FRET Assay
Method in brief: (§1)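 Signal is measured as TR-FRET between a terbium anti-phospho-Ser641 antibody and streptavidin-d2, added after an EDTA quench. Compounds are preincubated 30 min in assay buffer.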

[2] = target: Glycogen synthase kinase-3 beta (Homo sapiens, UniProt P49841); test: TR-FRET Assay
Chain of Glycogen synthase kinase-3 beta (P49841 whole entry): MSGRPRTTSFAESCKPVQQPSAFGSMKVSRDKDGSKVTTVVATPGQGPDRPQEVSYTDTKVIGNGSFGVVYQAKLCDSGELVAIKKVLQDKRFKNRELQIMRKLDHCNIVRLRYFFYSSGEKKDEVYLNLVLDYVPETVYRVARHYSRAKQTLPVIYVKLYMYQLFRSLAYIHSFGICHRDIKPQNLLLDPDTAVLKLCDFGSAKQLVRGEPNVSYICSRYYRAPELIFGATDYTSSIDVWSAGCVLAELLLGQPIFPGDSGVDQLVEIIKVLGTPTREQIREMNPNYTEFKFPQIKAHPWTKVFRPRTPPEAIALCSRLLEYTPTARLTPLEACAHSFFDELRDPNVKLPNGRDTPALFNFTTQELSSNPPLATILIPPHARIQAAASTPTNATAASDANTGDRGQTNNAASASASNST
Method in brief: as §1

Chain of Glycogen synthase kinase-3 alpha (P49840 whole entry): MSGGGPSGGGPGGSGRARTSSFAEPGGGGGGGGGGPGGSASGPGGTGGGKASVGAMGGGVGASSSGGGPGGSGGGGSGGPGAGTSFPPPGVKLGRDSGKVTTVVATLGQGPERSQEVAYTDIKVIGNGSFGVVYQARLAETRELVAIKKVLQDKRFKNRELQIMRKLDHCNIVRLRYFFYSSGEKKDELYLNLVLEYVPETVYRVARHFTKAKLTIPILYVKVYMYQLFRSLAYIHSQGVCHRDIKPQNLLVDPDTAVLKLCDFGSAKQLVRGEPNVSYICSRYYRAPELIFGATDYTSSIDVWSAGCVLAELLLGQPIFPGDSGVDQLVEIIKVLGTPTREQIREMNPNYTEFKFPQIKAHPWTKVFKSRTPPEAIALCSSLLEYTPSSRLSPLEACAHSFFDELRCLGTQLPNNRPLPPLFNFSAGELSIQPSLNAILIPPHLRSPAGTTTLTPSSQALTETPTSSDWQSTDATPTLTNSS

IC50 [1]	IC50 [2]	Compound
< 0.1 µM	0.1 to 1 µM	CC1(C)CC(=O)C2=C(C1)NC1=C(CN=N1)[C@]21COC2(CN(C(=O)C(F)(F)F)C2)C1 [US20250313563, Compound 948156]
< 0.1 µM	0.1 to 1 µM	CCC1(c2cccc(C(F)(F)F)c2)C2=C(N=NC2)NC2=C1C(=O)N(C)C2(C)C (stereo unspecified) [US20250313563, Compound 913198]
0.1 to 1 µM	1 to 5 µM	CC[C@]1(c2cccc(C(F)(F)F)c2)C2=CN=NC2NC2=C1C(=O)N(c1cnc(OC)nc1)[C@@H](C)C2 (stereo partly specified) [US20250313563, Compound 949354]
< 0.1 µM	< 0.1 µM	CC1(C)CC(=O)C2=C(C1)NC1=C(CN=N1)C21CCN(S(=O)(=O)c2ccc(Cl)c(Cl)c2)CC1 [US20250313563, Compound 945660]
0.1 to 1 µM	0.1 to 1 µM	CC1(C)CC(=O)C2=C(C1)NC1=C(CN=N1)C21CCS(=O)(=O)CC1 [US20250313563, Compound 896013]
> 5 µM	> 5 µM	CC[C@]1(c2cccc(-c3ccnc(C)c3)c2)C2=CN=NC2NC2=C1C(=O)[C@H](F)C(C)(C)C2 (stereo partly specified) [US20250313563, Compound 945485]
< 0.1 µM	< 0.1 µM	CCC1(c2cccc(Br)c2)C2=C(CC(C)(C)CC2=O)NC2N=NC(C(F)(F)F)=C21 (stereo unspecified) [US20250313563, Compound 801324]
0.1 to 1 µM	1 to 5 µM	CC[C@@]1(c2cccc(N3CCOCC3)c2)C2=C(CC(C)(C)CC2=O)NC2N=NC(C)=C21 (stereo partly specified) [US20250313563, Compound 889582]
< 0.1 µM	0.1 to 1 µM	CC[C@@]1(c2cccc(C(F)(F)F)c2)C2=CN=NC2NC2=C1C(=O)N(c1cnn(C)c1C)CC2 (stereo partly specified) [US20250313563, Compound 952257]
0.1 to 1 µM	1 to 5 µM	CC1(C)CC(=O)C2=C(C1)NC1=C(CN=N1)[C@]21COC2(CN(C(=O)C3CCCC3)C2)C1 [US20250313563, Compound 943958]
< 0.1 µM	0.1 to 1 µM	CC1(C)CC(=O)C2=C(C1)NC1N=NC=C1[C@@]21CCCN(S(=O)(=O)Cc2ccccc2)CC1 (stereo partly specified) [US20250313563, Compound 945473]
0.1 to 1 µM	> 5 µM	CCC1(c2ccc(C)cc2)C2=C(N=NC2)NC2=C1C(=O)CC(C)(C)C2 (stereo unspecified) [US20250313563, Compound 785739]
0.1 to 1 µM	0.1 to 1 µM	CC[C@H]1C[C@@]2(CO1)C1=C(N=NC1)NC1=C2C(=O)CC(C)(C)C1 [US20250313563, Compound 913216]
< 0.1 µM	< 0.1 µM	CC[C@]1(c2cccc(-c3c(F)cncc3OC)c2)C2=CN=NC2NC2=C1C(=O)CC(C)(C)C2 (stereo partly specified) [US20250313563, Compound 947511]
< 0.1 µM	< 0.1 µM	CCC1(c2cccc(-c3cncn3C)c2)C2=C(CC(C)(C)NC2=O)NC2N=NC(C(F)(F)F)=C21 (stereo unspecified) [US20250313563, Compound 948180]
0.1 to 1 µM	0.1 to 1 µM	CC1(C)CC(=O)C2=C(C1)NC1=C(CN=N1)C21CCN(S(=O)(=O)c2cc(F)ccn2)CC1 [US20250313563, Compound 947262]
< 0.1 µM	0.1 to 1 µM	CCC1(c2cccc(-c3nc(C)ncc3C)c2)C2=CN=NC2NC2=C1C(=O)CC(C)(C)C2 (stereo unspecified) [US20250313563, Compound 948091]
< 0.1 µM and 1 to 5 µM	0.1 to 1 µM	CC[C@]1(c2cccc(C)c2)C2=CN=NC2NC2=C1C(=O)CC(C)(C)C2 (stereo partly specified) [US20250313563, Compound 789560]
< 0.1 µM	< 0.1 µM	CCC1(c2cccc(N(C)c3ncccn3)c2)C2=C(CC(C)(C)NC2=O)NC2N=NC(C(F)(F)F)=C21 (stereo unspecified) [US20250313563, Compound 948176]
< 0.1 µM	1 to 5 µM	CC[C@@]1(c2cccc(-c3ccnc(C)c3)c2)C2=CN=NC2NC2=C1C(=O)C[C@H](C)C2 (stereo partly specified) [US20250313563, Compound 932657]
< 0.1 µM	0.1 to 1 µM	CC[C@]1(c2cccc(C(F)(F)F)c2)C2=C(N=NC2)NC2=C1C(=O)NC2(C)C [US20250313563, Compound 913451]
< 0.1 µM	< 0.1 µM	CC[C@@]1(c2cccc(-c3cnn(C)c3C)c2)C2=C(CC(C)(C)NC2=O)NC2N=NC(C)=C21 (stereo partly specified) [US20250313563, Compound 945731]
0.1 to 1 µM	> 5 µM	CCC1(c2cccc(CN(C)C(=O)COC)c2)C2=CN=NC2NC2=C1C(=O)CC(C)(C)C2 (stereo unspecified) [US20250313563, Compound 865196]
< 0.1 µM	< 0.1 µM	Cc1ccc(C(=O)N2CC3(C2)CC2(CO3)C3=C(N=NC3)NC3=C2C(=O)CC(C)(C)C3)cc1C (stereo unspecified) [US20250313563, Compound 947286]
< 0.1 µM	0.1 to 1 µM	CCC1(c2cccc(C(F)(F)F)c2)C2=CN=NC2NC2=C1C(=O)N(C1=CN=NC1)CC2 (stereo unspecified) [US20250313563, Compound 950479]
0.1 to 1 µM	1 to 5 µM	CC1(C)CC(=O)C2=C(C1)NC1=C(CN=N1)C21COC2(CN(C(=O)OC(C)(C)C)C2)C1 (stereo unspecified) [US20250313563, Compound 911083]
0.1 to 1 µM	1 to 5 µM	CC[C@]1(c2cccc(-c3ccncc3F)c2)C2=C(CC(C)(C)NC2=O)NC2N=NC(C)=C21 (stereo partly specified) [US20250313563, Compound 947805]

IC50 [1]	IC50 [2]	Compound
> 1.67 µM	> 5 µM	CCC1(c2cccc(N3CCNCC3)c2)C2=CN=NC2NC2=C1C(=O)CC(C)(C)C2 (stereo unspecified) [US20250313563, Compound 806604]
0.1 to 1 µM	1 to 5 µM	CC[C@]1(c2cccc(N(C)c3ccnc(C)c3)c2)C2=CN=NC2NC2=C1C(=O)CC(C)(C)C2 (stereo partly specified) [US20250313563, Compound 932645]
> 5 µM	> 5 µM	CC[C@]1(c2cccc(-c3c(C)cncc3C)c2)C2=CN=NC2NC2=C1C(=O)NC(C)(C)C2 (stereo partly specified) [US20250313563, Compound 948829]
0.1 to 1 µM	< 0.1 µM	CC(C)(C)CC1=C2C(N=N1)NC1=C(C(=O)CC(C)(C)C1)[C@]21CCc2cc(F)ccc21 (stereo partly specified) [US20250313563, Compound 782424]
> 5 µM	> 5 µM	CC[C@@]1(c2ccccc2)C2=CN=NC2NC2=C1C(=O)[C@@H](C)C[C@H]2C (stereo partly specified) [US20250313563, Compound 909218]
0.1 to 1 µM	< 0.1 µM	CC(C)(C)CC1=C2C(N=N1)NC1=C(C(=O)CC(C)(C)C1)[C@]21CCCc2ccccc21 (stereo partly specified) [US20250313563, Compound 811595]
0.1 to 1 µM	1 to 5 µM	CCC1(c2ccccc2)C2=C(N=NC2)NC2=C1C(=O)CC1(CC1)C2 (stereo unspecified) [US20250313563, Compound 789330]
< 0.1 µM	0.1 to 1 µM	CC[C@]1(c2ccccc2)C2=CN=NC2NC2=C1C(=O)[C@H](F)C(C)(C)C2 (stereo partly specified) [US20250313563, Compound 826768]
1 to 5 µM	> 5 µM	CC[C@@]1(c2cccc(-c3c(C)ccc4c(C)cccc34)c2)C2=C(CC(C)(C)NC2=O)NC2N=NC(F)=C21 (stereo partly specified) [US20250313563, Compound 949392]
0.1 to 1 µM	0.1 to 1 µM	CO[C@H]1CC[C@]2(CC1)C1=C(N=NC1)NC1=C2C(=O)CC(C)(C)C1 [US20250313563, Compound 884120]
< 0.1 µM	0.1 to 1 µM	CC1(C)CC(=O)C2=C(C1)NC1=C(CN=N1)[C@]2(C)c1cccc(-c2ccccc2)c1 [US20250313563, Compound 801367]
> 5 µM	> 5 µM	CO[C@H]1C[C@@]2(C1)C1=C(N=NC1)NC1=C2C(=O)CC(C)(C)C1 [US20250313563, Compound 901473]
< 0.1 µM	< 0.1 µM	CCC1(c2cccc(C(F)F)c2)C2=C(CC(C)(C)NC2=O)NC2N=NC(C(F)(F)F)=C21 (stereo unspecified) [US20250313563, Compound 948305]
1 to 5 µM	> 5 µM	CC[C@]1(c2cccc(-c3ccnc(C)c3C)c2)C2=CN=NC2NC2=C1C(=O)NC(C)(C)C2 (stereo partly specified) [US20250313563, Compound 948188]
< 0.1 µM	< 0.1 µM	CC1(C)CC(=O)C2=C(C1)NC1=C(CN=N1)C21COC2(CN(C(=O)C3(F)CCCC3)C2)C1 (stereo unspecified) [US20250313563, Compound 947277]
< 0.1 µM	0.1 to 1 µM	Cc1ccc(C(=O)N2CC3(C2)CC2(CO3)C3=C(N=NC3)NC3=C2C(=O)CC(C)(C)C3)c(C)c1 (stereo unspecified) [US20250313563, Compound 947294]
0.1 to 1 µM	1 to 5 µM	CC[C@@]1(c2cccc(-c3c(F)cncc3OC)c2)C2=CN=NC2NC2=C1C(=O)CC(C)(C)[C@H]2F (stereo partly specified) [US20250313563, Compound 948547]
< 0.1 µM and 0.1 to 1 µM	< 0.1 µM and 1 to 5 µM	COc1cccc(S(=O)(=O)N2CCC3(CC2)C2=C(N=NC2)NC2=C3C(=O)CC(C)(C)C2)c1 [US20250313563, Compound 901468]
0.1 to 1 µM	1 to 5 µM	CC[C@@]1(c2cccc(-c3c(C)nnn3C)c2)C2=CN=NC2NC2=C1C(=O)CC(C)(C)C2 (stereo partly specified) [US20250313563, Compound 946100]
< 0.1 µM	0.1 to 1 µM	CCC1(c2cccc(N(C)c3ccncn3)c2)C2=CN=NC2NC2=C1C(=O)CC(C)(C)C2 (stereo unspecified) [US20250313563, Compound 902970]
< 0.1 µM	0.1 to 1 µM	CCC1(c2cccc(-c3ccnc(C(F)(F)F)c3)c2)C2=CN=NC2NC2=C1C(=O)CC(C)(C)C2 (stereo unspecified) [US20250313563, Compound 913348]
< 0.1 µM	< 0.1 µM and 0.1 to 1 µM	CC[C@@]1(c2cccc(-c3ccncc3C)c2)C2=CN=NC2NC2=C1C(=O)CC(C)(C)C2 (stereo partly specified) [US20250313563, Compound 913047]
< 0.1 µM	0.1 to 1 µM	CC[C@]1(c2cc(-c3ccnc(C)c3)ccc2F)C2=CN=NC2NC2=C1C(=O)CC(C)(C)C2 (stereo partly specified) [US20250313563, Compound 909212]
< 0.1 µM and 0.1 to 1 µM	< 0.1 µM and 1 to 5 µM	CC[C@@]1(c2cccc(-c3ccncc3)c2)C2=CN=NC2NC2=C1C(=O)CC(C)(C)[C@H]2F (stereo partly specified) [US20250313563, Compound 959343]
0.1 to 1 µM	> 1.67 µM	CCC1(CC)C2=C(CC(C)(C)CC2=O)NC2=C1C(C)N=N2 (stereo unspecified) [US20250313563, Compound 786061]
< 0.1 µM	< 0.1 µM	CC[C@@]1(c2cccc(-c3cn(C)nc3C(C)C)c2)C2=C(CC(C)(C)CC2=O)NC2N=NC(C)=C21 (stereo partly specified) [US20250313563, Compound 913029]

Source: BindingDB's records for patent US20250313563 (The Broad Institute, 2025)
